Data published in patent US9255072B2, “Pyrazole compounds and thiazole compounds as protein kinases inhibitors” (National Health Rsearch Institutes, priority 2011, dated 2016).
Like-named read-outs stand apart in the source and are kept apart here.

Assays:
Assay type in all cases: biochemical
[1] = molecular target: T1, VEGFR1 (Homo sapiens, UniProt P17948); assay: VEGFR1 Kinase-Glo kinase assay
T1 construct: GST-VEGFR1 (residues R781-I1338); GST (N); made in house; host or cells: Sf9 insect cells
T1 sequence (P17948 781-1338): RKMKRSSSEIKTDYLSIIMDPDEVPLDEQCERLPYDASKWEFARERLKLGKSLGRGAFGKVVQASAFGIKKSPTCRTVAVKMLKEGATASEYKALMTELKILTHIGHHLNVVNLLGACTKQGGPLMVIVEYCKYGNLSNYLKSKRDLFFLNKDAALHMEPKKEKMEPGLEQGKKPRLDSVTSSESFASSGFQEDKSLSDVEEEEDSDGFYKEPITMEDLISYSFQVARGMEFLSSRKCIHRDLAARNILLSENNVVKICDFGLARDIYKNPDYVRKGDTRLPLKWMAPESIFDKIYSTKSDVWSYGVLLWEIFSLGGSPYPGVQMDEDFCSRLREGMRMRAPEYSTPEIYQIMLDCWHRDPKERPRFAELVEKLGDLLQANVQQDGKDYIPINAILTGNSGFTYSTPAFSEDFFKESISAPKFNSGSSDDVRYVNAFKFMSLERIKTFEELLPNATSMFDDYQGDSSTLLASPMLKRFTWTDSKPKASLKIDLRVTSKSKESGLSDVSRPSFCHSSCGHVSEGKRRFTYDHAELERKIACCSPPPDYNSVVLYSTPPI

[2] = molecular target: T2, Aurora A (Homo sapiens, UniProt O14965); assay: Aurora kinase A Kinase-Glo kinase assay
T2 construct: GST-Aurora A (residues S123-S401); GST (N); made in house; host or cells: Sf9 insect cells
T2 sequence (O14965 123-401): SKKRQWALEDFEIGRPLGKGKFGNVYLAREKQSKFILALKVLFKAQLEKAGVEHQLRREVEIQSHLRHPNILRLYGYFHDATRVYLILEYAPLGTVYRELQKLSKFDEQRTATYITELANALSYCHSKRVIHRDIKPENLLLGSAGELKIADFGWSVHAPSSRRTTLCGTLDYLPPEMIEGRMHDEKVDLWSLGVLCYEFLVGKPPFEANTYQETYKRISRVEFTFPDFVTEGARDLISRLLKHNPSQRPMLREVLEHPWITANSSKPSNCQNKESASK
Procedure: The recombinant GST-Aurora A (residues S123-S401) containing kinase domain were expressed in Sf9 insect cells. The kinase assay were carried out in 96-well plates with tested compound in a final volume of 50 μl reaction at 37° C. for 90 minutes with following components: 50 mM Tris-HCl pH 7.4, 10 mM NaCl, 10 mM MgCl2, 0.01% BSA, 5 μM ATP, 1 mM DTT and 15 μM tetra(LRRASLG) peptide, and 150 ng recombinant Aurora A. Following incubation, 50 μl Kinase-Glo Plus Reagent (Promega, Madison, Wis., USA) was added to each well and the mixture was incubated at 25° C. for 20 min. A 70-μL aliquot of each reaction mixture was transferred to a black microtiter plate and the luminescence was measured on Wallac Vector 1420 multilabel counter (PerkinElmer, Shelton, Conn., USA).

[3] = molecular target: T3, VEGFR2 (Homo sapiens, UniProt P35968); assay: VEGFR2 Kinase-Glo kinase assay
T3 construct: GST-VEGFR2 (residues V789-V1356); GST (N); made in house; host or cells: Sf9 insect cells
T3 sequence (P35968 789-1356): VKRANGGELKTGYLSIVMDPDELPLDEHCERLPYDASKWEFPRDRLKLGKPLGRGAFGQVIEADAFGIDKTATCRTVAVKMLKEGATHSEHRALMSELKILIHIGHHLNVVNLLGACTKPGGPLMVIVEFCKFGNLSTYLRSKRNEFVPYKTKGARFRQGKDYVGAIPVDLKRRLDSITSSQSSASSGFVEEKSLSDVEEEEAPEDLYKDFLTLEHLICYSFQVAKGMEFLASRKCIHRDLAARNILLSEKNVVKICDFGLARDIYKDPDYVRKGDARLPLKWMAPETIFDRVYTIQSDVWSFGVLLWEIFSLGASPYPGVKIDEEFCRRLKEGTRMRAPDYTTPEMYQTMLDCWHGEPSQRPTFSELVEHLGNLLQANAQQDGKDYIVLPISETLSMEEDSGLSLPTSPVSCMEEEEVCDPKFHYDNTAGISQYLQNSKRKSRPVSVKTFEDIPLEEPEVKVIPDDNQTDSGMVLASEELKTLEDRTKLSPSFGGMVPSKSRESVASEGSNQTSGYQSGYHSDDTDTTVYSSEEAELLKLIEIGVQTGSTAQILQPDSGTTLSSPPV

[4] = molecular target: T4, wt-FLT3 (Homo sapiens, UniProt P36888); assay: FLT3 WT Kinase-Glo assay
T4 construct: FLT3 kinase catalytic domain (residues Y567˜S993); made in house; host or cells: Sf9 insect cells (baculovirus, pBac-PAK8-GST-FLT3-KD plasmid)
T4 sequence (P36888 567-993): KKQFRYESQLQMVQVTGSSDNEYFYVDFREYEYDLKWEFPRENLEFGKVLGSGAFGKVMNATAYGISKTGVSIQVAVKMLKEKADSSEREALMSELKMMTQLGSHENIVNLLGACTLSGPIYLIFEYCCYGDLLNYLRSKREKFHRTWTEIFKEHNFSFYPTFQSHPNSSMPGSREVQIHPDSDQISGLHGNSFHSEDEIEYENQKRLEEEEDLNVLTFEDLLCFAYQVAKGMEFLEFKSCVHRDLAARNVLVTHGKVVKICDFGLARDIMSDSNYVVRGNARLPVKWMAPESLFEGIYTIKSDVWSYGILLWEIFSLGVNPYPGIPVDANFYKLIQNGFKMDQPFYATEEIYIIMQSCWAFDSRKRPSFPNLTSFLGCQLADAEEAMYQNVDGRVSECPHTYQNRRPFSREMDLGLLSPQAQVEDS
How it was run: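 GST-tagged wild-type FLT3 kinase domain (residues Y567–S993), expressed in Sf9 cells, was used. After the kinase reaction, remaining ATP was detected by Kinase-Glo Plus luminescence following 20 min at 25 °C.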

[5] = VEGFR1 assay, 1 μM ATP, bound in nM, read-out: IC50
[6] = VEGFR1 assay, 1 μM ATP, bound in μM, read-out: IC50
[7] = table of representative values, read-out: IC50 (nM) VEGFR1
[8] = Aurora A assay, 5 μM ATP, bound in nM, read-out: IC50
[9] = Aurora A assay, 5 μM ATP, bound in μM, read-out: IC50
[10] = table of representative values, read-out: IC50 (nM) Aurora A
[11] = VEGFR2 assay, 1 μM ATP, bound in μM, read-out: IC50
[12] = VEGFR2 assay, 1 μM ATP, ranges in nM, read-out: IC50
[13] = table of representative values, read-out: IC50 (nM) VEGFR2
[14] = FLT3 WT Kinase-Glo, 1 μM ATP, read-out: IC50
[15] = table of representative values, read-out: IC50 (nM) wt-FLT3

Row | IC50 [1, 5] [nM] | IC50 [1, 6] [nM] | IC50 [1, 7] [nM] | IC50 [2, 8] [nM] | IC50 [2, 9] [nM] | IC50 [2, 10] [nM] | IC50 [3, 11] [µM] | IC50 [3, 12] [µM] | IC50 [3, 13] [µM] | IC50 [4, 14] [nM] | IC50 [4, 15] [nM] | Compound
1 | < 100 | < 1000 | 20 | < 200 | < 1000 | 32 | < 1 | 0.001 to 0.055 | 0.025 | 1 to 20 | 15 | CCc1cc(NC(=O)Nc2ccc(-c3cnc(Nc4cc(N5CCN(CC)CC5)nc(C)n4)s3)cc2)no1 [Compound 112, N-(5-ethyl-3-isoxazolyl)-N′-[4-(2-[6-(4-ethylpiperazino)-2-methyl-4-pyrimidinyl]amino-1,3-thiazol-5-yl)phenyl]urea]
2 | < 100 | < 1000 | 63 | < 200 | < 1000 | 38 | < 1 | 0.001 to 0.055 | 0.007 | 1 to 20 | 14 | CCc1cc(NC(=O)Nc2ccc(-c3cnc(Nc4cc(N5CCC(N)C5)nc(C)n4)s3)cc2)no1 (stereo not shown) [Compound 119, N-[4-(2-[6-(3-aminotetrahydro-1H-1-pyrrolyl)-2-methyl-4-pyrimidinyl]amino-1,3-thiazol-5-yl)phenyl]N′-(5-ethyl-3-isoxazolyl)urea]
